# From ChEMBL document CHEMBL3885881, “DrugMatrix”
# Species: Rattus norvegicus
# Assay: DrugMatrix - Regimen: Daily Repeat
# Format: toxicity, organism-based, Sprague-Dawley
# Parameters: regimen Daily Repeat, gender Male, age 6-8 weeks
# Conditions: in vivo, sc, 30 mg/kg, route subcutaneous, […]; for ABSOLUTE BASOPHIL / ABSOLUTE EOSINOPHIL / ABSOLUTE LYMPHOCYTE / ABSOLUTE MONOCYTE / ABSOLUTE SEGMENTED NEUTROPHIL / BASOPHIL / EOSINOPHIL / ERYTHROCYTE COUNT / HEMATOCRIT / HEMOGLOBIN / LEUKOCYTE COUNT / LYMPHOCYTE / MEAN CORPUSCULAR HEMOGLOBIN / MEAN CORPUSCULAR VOLUME / MONOCYTE / NEUTROPHIL / NUCLEATED RED BLOOD CELLS / PLATELET COUNT: tissue Blood; for ALANINE AMINOTRANSFERASE / ALBUMIN / ALKALINE PHOSPHATASE / ASPARTATE AMINOTRANSFERASE / BLOOD UREA NITROGEN / CARBON DIOXIDE / CHLORIDE / CHOLESTEROL / CREATINE PHOSPHOKINASE / CREATININE / GLUCOSE / LACTATE DEHYDROGENASE / LIPASE / PHOSPHORUS / POTASSIUM / SODIUM / TOTAL BILIRUBIN / TOTAL PROTEIN / URIC ACID: tissue Plasma
# [1] = 72 h, dose level M2, time 3 day
# [2] = 120 h, dose level M2, time 5 day
smiles,measurement,setting,value
CC(C)(C)CC(C)(C)c1ccc(OCCOCC[N+](C)(C)Cc2ccccc2)cc1.[Cl-] [BENZETHONIUM CHLORIDE],ABSOLUTE BASOPHIL,[1],0 CELLS/uL
same,ABSOLUTE EOSINOPHIL,[1],0 CELLS/uL
same,ABSOLUTE LYMPHOCYTE,[1],10787.33 CELLS/uL
same,ABSOLUTE MONOCYTE,[1],579.67 CELLS/uL
same,ABSOLUTE SEGMENTED NEUTROPHIL,[1],1766.33 CELLS/uL
same,BASOPHIL,[1],0%
same,EOSINOPHIL,[1],0%
same,ERYTHROCYTE COUNT,[1],5.13 x10E6/uL
same,HEMATOCRIT,[1],31.77%
same,HEMOGLOBIN,[1],11.87 G/DL
same,LEUKOCYTE COUNT,[1],13.13 x10E3/uL
same,LYMPHOCYTE,[1],83%
same,MEAN CORPUSCULAR HEMOGLOBIN,[1],23.13 pg
same,MEAN CORPUSCULAR VOLUME,[1],61.93 fL
same,MONOCYTE,[1],4.33%
same,NEUTROPHIL,[1],12.67%
same,NUCLEATED RED BLOOD CELLS,[1],0 /100WBC
same,PLATELET COUNT,[1],981 x10E3/uL
same,ALANINE AMINOTRANSFERASE,[1],24.33 u/L
same,ALBUMIN,[1],2.63 G/DL
same,ALKALINE PHOSPHATASE,[1],269 u/L
same,ASPARTATE AMINOTRANSFERASE,[1],71.67 u/L
same,BLOOD UREA NITROGEN,[1],15.33 mg/dL
same,CARBON DIOXIDE,[1],21.67 mmol/L
same,CHLORIDE,[1],101 MEQ/L
same,CHOLESTEROL,[1],45 mg/dL
same,CREATINE PHOSPHOKINASE,[1],122.67 u/L
same,CREATININE,[1],0.15 mg/dL
same,GLUCOSE,[1],140.67 mg/dL
same,LACTATE DEHYDROGENASE,[1],116.67 u/L
same,LIPASE,[1],7 u/L
same,PHOSPHORUS,[1],11.27 mg/dL
same,POTASSIUM,[1],5.61 MEQ/L
same,SODIUM,[1],142.5 MEQ/L
same,TOTAL BILIRUBIN,[1],0.1 mg/dL
same,TOTAL PROTEIN,[1],5.93 G/DL
same,URIC ACID,[1],2.4 mg/dL
same,ABSOLUTE BASOPHIL,[2],0 CELLS/uL
same,ABSOLUTE EOSINOPHIL,[2],0 CELLS/uL
same,ABSOLUTE LYMPHOCYTE,[2],12245 CELLS/uL
same,ABSOLUTE MONOCYTE,[2],1299.67 CELLS/uL
same,ABSOLUTE SEGMENTED NEUTROPHIL,[2],8588.67 CELLS/uL
same,BASOPHIL,[2],0%
same,EOSINOPHIL,[2],0%
same,ERYTHROCYTE COUNT,[2],4.82 x10E6/uL
same,HEMATOCRIT,[2],29.43%
same,HEMOGLOBIN,[2],11.43 G/DL
same,LEUKOCYTE COUNT,[2],22.13 x10E3/uL
same,LYMPHOCYTE,[2],55%
same,MEAN CORPUSCULAR HEMOGLOBIN,[2],23.73 pg
same,MEAN CORPUSCULAR VOLUME,[2],61.07 fL
same,MONOCYTE,[2],6%
same,NEUTROPHIL,[2],39%
same,NUCLEATED RED BLOOD CELLS,[2],0 /100WBC
same,PLATELET COUNT,[2],1372 x10E3/uL
same,ALANINE AMINOTRANSFERASE,[2],31.67 u/L
same,ALBUMIN,[2],2.27 G/DL
same,ALKALINE PHOSPHATASE,[2],363.33 u/L
same,ASPARTATE AMINOTRANSFERASE,[2],89.33 u/L
same,BLOOD UREA NITROGEN,[2],11.67 mg/dL
same,CARBON DIOXIDE,[2],29.33 mmol/L
same,CHLORIDE,[2],101.67 MEQ/L
same,CHOLESTEROL,[2],41.33 mg/dL
same,CREATINE PHOSPHOKINASE,[2],166.67 u/L
same,CREATININE,[2],0.11 mg/dL
same,GLUCOSE,[2],117.33 mg/dL
same,LACTATE DEHYDROGENASE,[2],105.33 u/L
same,LIPASE,[2],7 u/L
same,PHOSPHORUS,[2],10.93 mg/dL
same,POTASSIUM,[2],6.02 MEQ/L
same,SODIUM,[2],143.77 MEQ/L
same,TOTAL BILIRUBIN,[2],0.1 mg/dL
same,TOTAL PROTEIN,[2],5.3 G/DL
same,URIC ACID,[2],1.83 mg/dL
